Data on eight compounds can be found in article PMC12716216, “Characterization of Ligand Binding in Human Serum Albumin from Atomistic Energy Transfer Simulations” (Small Methods, 2025).

Series [1] has as its target human serum albumin (HSA) (Homo sapiens, UniProt P02768). The series can be described thus: Fluorescence ligand titration of HSA: quenching of intrinsic protein (Trp214) fluorescence, fitted Kd, n and FRET efficiency. As to the method: For absorbance and fluorescence, solutions of the ligand, protein, and protein‐ligand complexes at different concentrations were prepared using PBS 1x buffer. […] The fluorescence intensities of protein‐ligand complexes were corrected for inner‐filter effects based on the absorbance of the ligands at the excitation and emission wavelengths ( IDA,cor=IDA10^(Absex+Absem)/2 ).^[ [19] ^] The fluorescence of the ligands in the absence of HSA was also recorded at 100 µM concentration. Spectral overlaps used to compute FRET rates were computed from the measured area‐normalized D emission and A absorption spectra and are reported in the Supporting Information. Protein and ligand solutions were freshly prepared, and titrations were carried out in the cuvette right before the measurement. The average of three measurements for the complexes at each ligand concentration was used to plot the spectra and compute FRET efficiencies following this formula: (10) E=1−IDA/ID where IDA is the intensity of the complex and ID the intensity of HSA in the absence of ligand.
Efficiencies were corrected based on the percentage of protein‐ligand complex formed in each solution, based on the measured Kd values, then final efficiencies were averaged over the three concentrations.

The test system of the next series is HSA. The settings on record: cited from earlier work.
Where [2] appears, read: 5 µM HSA, PBS 1x, 295 nm excitation, IFE-corrected (carprofen: 280 nm).
Where [3] appears, read: Kd, excitation 280 nm, IFE-corrected.
[4] abbreviates: Kd, excitation 280 nm, no correction.
[5] abbreviates: Kd, excitation 295 nm, no correction.
Where [6] appears, read: corrected by fraction of ligand-bound protein, 295 nm excitation, IFE-corrected (carprofen: 280 nm).
Where [7] appears, read: dissociation binding constant Kd, 5 µM HSA, PBS 1x, 25 °C, 295 nm excitation, IFE-corrected (carprofen: 280 nm).
[8] abbreviates: excitation 280 nm, IFE-corrected.
[9] abbreviates: excitation 280 nm, no correction.
Where [10] appears, read: excitation 295 nm, IFE-corrected.
[11] abbreviates: excitation 295 nm, no correction.

Values joined by “and” are separate entries in the source; they are usually repeats but may differ in a detail not shown here. Equal values may be shown once. Read-outs that look alike come from different tables or passages of the source.

As a reminder, the Kd is the equilibrium constant for the complex coming apart.

Chain of human serum albumin (HSA) (P02768 25-609): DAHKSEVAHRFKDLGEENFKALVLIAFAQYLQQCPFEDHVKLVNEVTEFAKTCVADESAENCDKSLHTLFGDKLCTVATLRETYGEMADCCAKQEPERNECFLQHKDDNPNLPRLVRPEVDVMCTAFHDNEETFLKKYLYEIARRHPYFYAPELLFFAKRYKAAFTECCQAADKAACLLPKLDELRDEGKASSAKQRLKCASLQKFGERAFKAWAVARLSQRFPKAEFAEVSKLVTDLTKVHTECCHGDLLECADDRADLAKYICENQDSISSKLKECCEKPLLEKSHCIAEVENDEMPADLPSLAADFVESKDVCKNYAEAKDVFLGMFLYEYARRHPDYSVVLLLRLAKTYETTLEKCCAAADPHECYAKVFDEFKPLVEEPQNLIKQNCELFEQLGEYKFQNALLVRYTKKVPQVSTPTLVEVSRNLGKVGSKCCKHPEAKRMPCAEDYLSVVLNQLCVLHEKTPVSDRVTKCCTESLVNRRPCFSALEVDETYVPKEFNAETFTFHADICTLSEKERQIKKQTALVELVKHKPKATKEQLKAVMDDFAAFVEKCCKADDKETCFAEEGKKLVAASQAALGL

Turning to `O=C(O)c1c2ccccc2nc2ccccc12` [ACA, 9‐acridinecarboxylic acid], the “solute binding parameter n (Hill coefficient)” value (shortened to “solute binding parameter n”) in series [1] (setting [2]) is 0.67. Further, the dissociation constant (Kd) in series [1] (setting [3]) turned out to be 17.5 µM; in series [1] (setting [4]) it was 20.9 µM; in series [1] (setting [5]) it was 18.3 µM; in series [1] (setting [7]), 15.5 µM. The “experimental FRET efficiency E (Eexp)” value in series [1] (setting [6]) came to 0.63. The Eexp in series [1] (setting [8]) was 0.64± 0.02; in series [1] (setting [9]), 0.75± 0.02; in series [1] (setting [10]), 0.63 ± 0.02; in series [1] (setting [11]), 0.72± 0.02. In addition, the “measured FRET efficiency” value in series [1] (from fluorescence data) is 63%.

In the case of `NCCNc1cccc2ccccc12` [NNE, N‐(1‐naphthyl)ethylenediamine], the “solute binding parameter n” value in series [1] (setting [2]) was 0.33. Moreover, the Kd in series [1] (setting [3]) worked out at 3.9 µM; in series [1] (setting [4]), 5.6 µM; in series [1] (setting [5]), 5 µM; in series [1] (setting [7]), 3.5 µM. Further, the “experimental FRET efficiency E (Eexp)” value in series [1] (setting [6]) is 0.55; in series [1] (corrected by fraction of ligand-bound protein, 295 nm excitation, IFE-corrected (carprofen: 280 nm), listed as N-(1-Naphthyl)ethylenediamine), 0.55 ± 0.02. Moreover, the Eexp in series [1] (setting [8]) was 0.45± 0.01; in series [1] (setting [9]), 0.57± 0.03; in series [1] (setting [10]) it was 0.55 ± 0.02; in series [1] (setting [11]), 0.67± 0.03. Further, the “measured FRET efficiency” value in series [1] (from fluorescence data) turned out to be 55%.

Consider `O=C(O)c1c2ccccc2nc2ccccc12` [protonated ACA, 9-Acridinecarboxylic acid (protonated)], for which the “experimental FRET efficiency E (Eexp)” value in series [1] (setting [6]) worked out at 0.63 ± 0.02.

As for `COc1ccc2c(c1)c(CC(=O)O)c(C)n2C(=O)c1ccc(Cl)cc1` [indomethacin], the Kd in the series on HSA (read-out: Kd previously reported value) is 6.1 µM.

Turning to `O=C(O)COc1cccc2cccnc12` [QAA, (quinoline‐8‐yloxy)‐acetic acid], in series [1] (setting [2]), the “solute binding parameter n” value stood at 0.76. The Kd in series [1] (setting [3]) was 74.5 µM; in series [1] (setting [4]), 75.9 µM; in series [1] (Kd, excitation 295 nm, IFE-corrected), 48.1 µM; in series [1] (setting [5]), 54.8 µM; in series [1] (setting [7]), 48 µM. Further, the “experimental FRET efficiency E (Eexp)” value was 0.60 in series [1] (setting [6]) and 0.60 ± 0.01 in series [1] (corrected by fraction of ligand-bound protein, 295 nm excitation, IFE-corrected (carprofen: 280 nm), listed as (Quinolin-8-yloxy)-acetic acid). Moreover, the Eexp in series [1] (setting [8]) came to 0.68± 0.01; in series [1] (setting [9]), 0.80± 0.01; in series [1] (setting [10]), 0.60 ± 0.01; in series [1] (setting [11]) it was 0.76± 0.01. Besides, the “measured FRET efficiency” value in series [1] (from fluorescence data) worked out at 60%.

Turning to `Oc1ccc2ccccc2c1` [2‐naphthol], the “solute binding parameter n” value in series [1] (setting [2]) is given as 0.71. The Kd in series [1] (setting [3]) was determined as 64.5 µM; in series [1] (setting [4]) it was 77 µM; in series [1] (setting [5]), 6.9 µM; in series [1] (setting [7]), 6.6 µM. In addition, the “experimental FRET efficiency E (Eexp)” value in series [1] (setting [6]) worked out at 0.80; in series [1] (corrected by fraction of ligand-bound protein, 295 nm excitation, IFE-corrected (carprofen: 280 nm), listed as 2-Naphthol) it was 0.80 ± 0.03. The Eexp in series [1] (setting [8]) turned out to be 0.71± 0.02; in series [1] (setting [9]) it was 0.87± 0.03; in series [1] (setting [10]), 0.80 ± 0.03; in series [1] (setting [11]) it was 0.82± 0.03. Further, the “measured FRET efficiency” value in series [1] (from fluorescence data) came out at 80%.

On to `C[C@H](C(=O)O)c1ccc2c(c1)[nH]c1ccc(Cl)cc12` [(S)‐carprofen], for which the equilibrium dissociation constant (Kd) in the series on HSA (read-out: Kd previous reports) was 0.2 to 0.9 µM; in series [1] (setting [4]) it was 3 µM; in series [1] (setting [5]) it was 2.8 µM; in series [1] (setting [7]), 1.8 µM. In addition, the “solute binding parameter n” value in series [1] (setting [2]) was found to be 0.48. Besides, the “experimental FRET efficiency E (Eexp)” value in series [1] (setting [6]) turned out to be 0.81; in series [1] (corrected by fraction of ligand-bound protein, 295 nm excitation, IFE-corrected (carprofen: 280 nm), listed as Carprofen), 0.81 ± 0.03. Also, the Eexp in series [1] (setting [8]) was determined as 0.81 ± 0.03; in series [1] (setting [9]), 0.89± 0.02; in series [1] (setting [10]) it was 0.42± 0.04; in series [1] (setting [11]), 0.71± 0.03. In addition, the “measured FRET efficiency” value in series [1] (from fluorescence data) amounted to 81%.

Consider `Oc1cccc2ccccc12` [1‐naphthol], for which, in series [1], the Eexp was 0.83± 0.01 and 0.46± 0.05 and 0.79± 0.03 and 0.54± 0.03; the “experimental FRET efficiency E (Eexp)” value was 0.46± 0.05 and 0.46; the “measured FRET efficiency” value is 46%; the “solute binding parameter n” value came out at 0.73. The same compound returned an equilibrium dissociation constant (Kd) in series [1] (setting [3]) of 128 µM. This compound also registered an equilibrium dissociation constant (Kd) in series [1] (setting [4]) of 104 µM. Besides, the equilibrium dissociation constant (Kd) in series [1] (setting [5]) worked out at 105 µM. The compound further returned a Kd in series [1] (setting [7]) of 137 µM.
